Assays:
KL LJE1 cells [1] = experiment: Western blot and qRT-PCR of FGFR1, NKX2-1 and ERK phosphorylation in drug-treated KL LJE1 cells; assay type: cell-based, mouse
Description: (§1) All cell lines were incubated at 37° C. and were maintained in an atmosphere containing 5% CO2. Cells were tested for Mycoplasma (Lonza) using manufacturer's conditions and were deemed negative. Cells were grown in Dulbecco's modified Eagles medium (DMEM) plus 10% fetal bovine serum (Gibco) and were continuously maintained under antibiotic selection for stable cell lines. Proliferation assays were performed by plating 2×10^3 cells per well of a 6-well plate, and cells were counted 5 days post-plating. Drug treatments were carried out using the following doses: entinostat 1 uM or 2 uM, RGFP966 10uM, TSA 0.5 uM, BRD3308 5 uM, trametinib 5 nM, 10 nM, and 25 nM, and MRTX1133 10 nM, 25 nM, and 50 nM, as indicated for the indicated treatment lengths. Media was changed and fresh drug added every 2 days.
(§2) mRNA was prepared using the Quick-RNA Miniprep kit (Zymo Research), including DNase treatment. cDNA was synthesized from 2 μg of RNA using SuperScript III (Life Technologies), and qPCR was carried out with diluted cDNA, appropriate primers, and SYBR Green PCR master mix (ThermoFisher Scientific) using a C1000 Thermal Cycler (BioRad). Relative mRNA levels were calculated using the delta Ct method, using Tbp as an internal control.
(§3) Protein lysates in CST buffer (20 mM Tris pH 7.5, 150 mM NaCl, 1% Triton X-100, 50 mM NaF, 1 mM EDTA, 1 mM EGTA, 2.5 mM PyroPhosphate, 2 mM beta-glycerol-phosphate, 1 mM orthovanadate, 0.01 mM Calyculan A) with protease inhibitors were equilibrated for protein levels using a BCA protein assay kit (Pierce), resolved on 8% SDS-PAGE gels, and transferred to membrane. Membranes were blocked in milk, incubated o/n at 4C in diluted primary antibody, washed with TBS-T, incubated 1 hr in secondary antibody diluted in TBS-T plus milk, washed in TBS-T, and developed using SuperSignal ECL. Secondary antibodies: anti-rabbit (Millipore AP132P) and anti-mouse (Millipore AP124P). Nuclear fractions were isolated using a NE-PER nuclear and cytoplasmic extraction kit (Thermofisher) under manufacturers conditions.

human lung cancer cells = experiment: FGFR1 resistance mechanism in human lung cancer cells; assay type: cell-based; details: 6 days of treatment
KL LJE1 cells [2] = experiment: qRT-PCR of chemokine (HRCG) gene expression in KL LJE1 cells; assay type: cell-based, mouse
Description: as §1, §2

NF-kB/p65 protein = experiment: Western blot of p65 nuclear localisation and K310 acetylation in KL LJE1 cells; assay type: cell-based, mouse; details: for quantity of p65 protein in the nuclear fraction: Western blot, 6 hr, 2 uM entinostat, 10uM RGFP966, 0.5 uM TSA
Description: as §3
p65-expressing DNA constructs RelA-Flag (22) (Addgene 20012) and GFP-RelA (21) (Addgene 23255) were transiently transfected into KL LJE1 cells using Lipofectamine 2000 (Thermo Fisher Scientific) according to the manufacturer's protocol. Cells were treated with drug as indicated 24 hours after transfection.

H460 cells = experiment: qRT-PCR of chemokine gene expression in H460 cells; assay type: cell-based, human; details: 1 uM entinostat 4 days, 5 uM BRD3308 4 days
Description: as §1, §2

A549 cells = experiment: qRT-PCR of chemokine gene expression in A549 cells; assay type: cell-based, human; details: 2 uM entinostat 3 days, 5 uM BRD3308 4 days
Description: as §1, §2

KL LJE1 cells [3] = experiment: RNA-seq of drug-treated KL LJE1 cells (TIER genes); assay type: cell-based, mouse; details: adj. p-value<0.05, 10 nM trametinib
Description: All cell lines were incubated at 37° C. and were maintained in an atmosphere containing 5% CO2. Cells were tested for Mycoplasma (Lonza) using manufacturer's conditions and were deemed negative. Cells were grown in Dulbecco's modified Eagles medium (DMEM) plus 10% fetal bovine serum (Gibco) and were continuously maintained under antibiotic selection for stable cell lines. Proliferation assays were performed by plating 2×10^3 cells per well of a 6-well plate, and cells were counted 5 days post-plating. […]
mRNA was collected from cells harvested within 2 passages post-thaw. mRNA was isolated using the Quick-RNA Miniprep kit (Zymo Research), including DNase treatment. RNA integrity (RIN) numbers were determined using the Agilent TapeStation prior to library preparation. mRNA-seq libraries were prepared using the TruSeq RNA library preparation kit (version 2), according to the manufacturer's instructions (Illumina). Libraries were quantified, pooled, and sequenced by single-end 50 base pairs using the Illumina HiSeq 2500 platform at the Salk Next-Generation Sequencing Core. […]
Sequenced reads were quality-tested using the online FASTQC tool (bioinformatics.babraham.ac.uk/projects/fastqc) and aligned to the mouse mm10 genome using the STAR aligner version 2.4.0k (Ref. 81; incorporated by reference in its entirety). […]

[4] = HDAC3 KO cells, 5 days, MRTX1133 10, 25, or 50 nM, trametinib 5, 10, or 25 nM

C#Cc1c(F)ccc2cc(O)cc(-c3ncc4c(N5CC6CCC(C5)N6)nc(OC[C@@]56CCCN5C[C@H](F)C6)nc4c3F)c12 [MRTX1133]
FGFR1 resistance mechanism (KL LJE1 cells [1]; 1 day of treatment): induces the FGFR1 resistance mechanism in an HDAC3-dependent manner | FGFR1 resistance mechanism (KL LJE1 cells [1]; 5 days of treatment): induces the FGFR1 resistance mechanism in an HDAC3-dependent manner | ERK phosphorylation at Thr202/Tyr204 (KL LJE1 cells [1]; Western blot, 24 hr, 10 nM, 25 nM or 50 nM MRTX1133): on-target Kras inhibition | FGFR1 resistance mechanism (human lung cancer cells): induces the FGFR1 resistance mechanism | HRCG expression, drug alone (NT cells) (KL LJE1 cells [2]; 5 days, MRTX1133 10, 25, or 50 nM): did not impact the expression of these genes | HDAC3 KO-dependent induction of immunosuppressive HRCGs (Cxc15, Cxc1, Cxc12, Cxc13) (KL LJE1 cells [2]; [4]): reversed the HDAC3-dependent induction | HDAC3 KO-dependent induction of immunosurveillance-related HRCGs (Cc15, Cxc110) (KL LJE1 cells [2]; [4]): expression was maintained in the presence of MRTX1133

CC(=O)Nc1ccc(C(=O)Nc2ccc(F)cc2N)cc1 [BRD3308]
acetylation of wildtype p65 at K310 (versus K310A mutant) (NF-kB/p65 protein; 5 hours, 1 uM entinostat or 5 uM BRD3308): induce acetylation of wildtype p65 at K310 | chemokine (SASP) gene expression (H460 cells): induced the expression of these genes | chemokine (SASP) gene expression (A549 cells): induced the expression of these genes | gene expression induction in NT versus p65 KO cells (KL LJE1 cells [2]; 3 days, 1 uM entinostat or 5 uM BRD3308): p65 facilitates maximal gene expression induction

Nc1cc(F)ccc1NC(=O)/C=C/c1cnn(C/C=C/c2ccccc2)c1 [RGFP966]
quantity of p65 protein in the nuclear fraction (NF-kB/p65 protein): increased the quantity of p65 protein in the nuclear fraction | chemokine (SASP) gene expression (KL LJE1 cells [2]; 72 hr, 2 uM entinostat or 10uM RGFP966): robust induction of gene expression

CC(=O)Nc1cccc(-n2c(=O)n(C3CC3)c(=O)c3c(Nc4ccc(I)cc4F)n(C)c(=O)c(C)c32)c1 [trametinib]
genes upregulated upon 13 day trametinib compared to vehicle (KL LJE1 cells [3]): 2,141 genes

CC(/C=C/C(=O)NO)=C\[C@@H](C)C(=O)c1ccc(N(C)C)cc1 [TSA, trichostatin a]
quantity of p65 protein in the nuclear fraction (NF-kB/p65 protein): increased the quantity of p65 protein in the nuclear fraction

— US20240398814A1, “KRAS INHIBITOR AND HDAC INHIBITOR COMBINATION FOR THE TREATMENT OF CANCER” (Northwestern University, priority 2023, published 2024)
